Measurements taken from patent publication US6451856B1, “Carnitine supplemented diets for gestating and lactating swine” (Lonza Inc., priority 1996, dated 2002).

Tests used:
Format in all cases: in vivo, swine
sows (PIC Line C-15x326) [1] = test: Effect of L-carnitine fed during gestation, lactation or both on sow and litter performance; conditions: for Litter birth weight / Litter weight at weaning / Litter weight gain / Pig birth weight / Pig wean weight / Pig weight gain / Survivability: 50 ppm L-carnitine in diet; for Pigs weaned per litter / Average daily feed intake, overall / Average daily feed intake, wk 1 / Average daily feed intake, wk 2: 50 ppm L-carnitine; for Pigs weaned per litter: pigs per litter on day 2 as covariate; for Average daily feed intake, overall / Average daily feed intake, wk 1 / Average daily feed intake, wk 2: sow lactation feed intake
Source text: A total of 307 sows (PIC Line C-15x326) were used to determine the effect of feeding 50 ppm L-carnitine on the sow and litter performance. Sows were randomly assigned to either control or test dietary treatments. The three test treatments were designated as follows: (i) control/carnitine (in which carnitine was supplemented only during the period of lactation); (ii) carnitine/control (in which carnitine was supplemented only during the period of gestation) and (iii) carnitine/carnitine (in which carnitine was supplemented during the periods of both gestation and lactation).
A gestation diet was formulated to contain nutrients in excess of NRC (1988) estimates, and included 79.51% milo; 15.22% soybean meal (46.5% CP); 2.51% monocalcium phosphate; 1.11% limestone; 0.5% sodium chloride; 0.25% sow premix; 0.25% vitamin premix; and 0.15% trace element premix. This diet contained 0.65% total lysine, 0.95% Ca and 0.85% P. Experimental gestation diet contained 50 ppm L-carnitine. Sows were fed 4 lb of diet/day once a day until farrowing. Sows were weighed and last rib fat debt was recorded at day 110 of gestation. At farrowing, a number of pigs born live, stillborn, and mummies were recorded. Individual pig weight and litter weight were also recorded. Within 48 hours from farrowing, litters were equalized within dietary treatment.
A lactation diet was formulated to contain nutrients in excess of NRC (1988) estimates, and included 62.91% milo; 28.41% soybean meal (46.5% CP); 4% soybean oil; 2.33% monocalcium phosphate; 1.12% limestone; 0.5% sodium chloride; 0.25% sow premix; 0.25% vitamin premix; 0.15% trace element premix; 0.05% vitamin E and 0.02% DL-Methionine. This diet contained 1.0% total lysine, 0.95% Ca and 0.85% P. Experimental lactation diet contained 50 ppm L-carnitine. The sows were allowed ad libitum access to feed. Feed intake was measured weekly. Pigs were weighed at weaning to determine pig and litter weight. Sows were ultrasonically scanned for last rib fat debt at weaning.
The data were analyzed by analysis of variance using GLM procedure of SAS (1988).

sows (PIC Line C-15x326) [2] = test: Effects of L-carnitine on subsequent reproductive performance (second reproductive cycle, no carnitine); conditions: for Days to estrus / Farrowing rate / Number born live / Number total born: first-cycle 50 ppm L-carnitine; for Farrowing rate / Number born live / Number total born: second cycle
Method: The effect of carnitine on subsequent reproductive performance was also measured. Sows fed diets described above were continued to be monitored during the subsequent, i.e., second cycle of reproduction. The sow diets were not supplemented with carnitine during the second cycle of reproduction to determine if carnitine had any residual effect. The total number of pigs born and the number of pigs born alive were determined. Referring to Table 5, feeding carnitine in the first reproductive cycle increased the total number of born pigs and the number of pigs born alive in the second reproductive cycle.

sows (PIC Line C-15x326) [3] = test: Sow plasma analysis for insulin and IGF-I
Method: Sows were bled at day 10, 60, 90 and 110 of gestation and at weaning. Plasma samples were analyzed for concentration of free and total carnitine, insulin, and insulin-like growth factor I (IGF-I). The data were analyzed by analysis of variance using GLM procedure of SAS (1988).

[4] = gestation and lactation (carnitine/carnitine)
[5] = gestation only (carnitine/control)
[6] = gestation only (carnitine/control), listed as Carnitine
[7] = lactation only (control/carnitine)
[8] = carnitine fed in the first reproductive cycle, none in the second

C[N+](C)(C)C[C@H](O)CC(=O)[O-] [L-carnitine]
Litter birth weight (sows (PIC Line C-15x326) [1]; [4]): 34.49 lb
Litter weight at weaning (sows (PIC Line C-15x326) [1]; [4]): 99.03 lb
Litter weight gain (sows (PIC Line C-15x326) [1]; [4]): 64.25 lb
Pig birth weight (sows (PIC Line C-15x326) [1]; [4]): 3.53 lb
Pig wean weight (sows (PIC Line C-15x326) [1]; [4]): 10.99 lb
Pig weight gain (sows (PIC Line C-15x326) [1]; [4]): 7.45 lb
Survivability (sows (PIC Line C-15x326) [1]; [4]): 90.45%
Litter birth weight (sows (PIC Line C-15x326) [1]; [5]): increased
Litter weight at weaning (sows (PIC Line C-15x326) [1]; [5]): increased
Litter weight gain (sows (PIC Line C-15x326) [1]; [5]): increased
Pig birth weight (sows (PIC Line C-15x326) [1]; [5]): increased
Pig wean weight (sows (PIC Line C-15x326) [1]; [5]): increased
Pig weight gain (sows (PIC Line C-15x326) [1]; [5]): increased
Survivability (sows (PIC Line C-15x326) [1]; [5]): 86.87%
Litter birth weight (sows (PIC Line C-15x326) [1]; [6]): 34.46 lb
Litter weight at weaning (sows (PIC Line C-15x326) [1]; [6]): 97.69 lb
Litter weight gain (sows (PIC Line C-15x326) [1]; [6]): 62.83 lb
Pig birth weight (sows (PIC Line C-15x326) [1]; [6]): 3.45 lb
Pig wean weight (sows (PIC Line C-15x326) [1]; [6]): 10.94 lb
Pig weight gain (sows (PIC Line C-15x326) [1]; [6]): 7.52 lb
Litter birth weight (sows (PIC Line C-15x326) [1]; [7]): 32.73 lb
Litter weight at weaning (sows (PIC Line C-15x326) [1]; [7]): 91.91 lb
Litter weight gain (sows (PIC Line C-15x326) [1]; [7]): 58.59 lb
Pig birth weight (sows (PIC Line C-15x326) [1]; [7]): 3.32 lb
Pig wean weight (sows (PIC Line C-15x326) [1]; [7]): 10.38 lb
Pig weight gain (sows (PIC Line C-15x326) [1]; [7]): 7.11 lb
Survivability (sows (PIC Line C-15x326) [1]; [7]): 86.08%
Pigs weaned per litter (sows (PIC Line C-15x326) [1]; [4]): 9.00
Pigs weaned per litter (sows (PIC Line C-15x326) [1]; [5]): 9.02
Pigs weaned per litter (sows (PIC Line C-15x326) [1]; [7]): 8.89
sow weight at weaning (sows (PIC Line C-15x326) [1]; L-carnitine during gestation only, control 493, P<0.01): 511 lb
sow weight at weaning (sows (PIC Line C-15x326) [1]; carnitine during both gestation and lactation, control 493 lb): 524 lb
sow or litter performance (sows (PIC Line C-15x326) [1]; carnitine during the period of lactation only, versus control): no differences were observed
number of stillborn pigs per litter (sows (PIC Line C-15x326) [1]; carnitine-supplemented diet during gestation only, control 0.76, P<0.02): 0.49 stillborn pigs/litter
Average daily feed intake, overall (sows (PIC Line C-15x326) [1]; [4]): 13.58 lb
Average daily feed intake, wk 1 (sows (PIC Line C-15x326) [1]; [4]): 11.88 lb
Average daily feed intake, wk 2 (sows (PIC Line C-15x326) [1]; [4]): 14.87 lb
Average daily feed intake, overall (sows (PIC Line C-15x326) [1]; [5]): 13.16 lb
Average daily feed intake, wk 1 (sows (PIC Line C-15x326) [1]; [5]): 11.52 lb
Average daily feed intake, wk 2 (sows (PIC Line C-15x326) [1]; [5]): 14.70 lb
Average daily feed intake, overall (sows (PIC Line C-15x326) [1]; [7]): 13.01 lb
Average daily feed intake, wk 1 (sows (PIC Line C-15x326) [1]; [7]): 11.55 lb
Average daily feed intake, wk 2 (sows (PIC Line C-15x326) [1]; [7]): 14.41 lb
number of pigs born alive in the second reproductive cycle (sows (PIC Line C-15x326) [2]; [8]): increased
total number of born pigs in the second reproductive cycle (sows (PIC Line C-15x326) [2]; [8]): increased
Days to estrus (sows (PIC Line C-15x326) [2]; [4]): 5.37 days
Days to estrus (sows (PIC Line C-15x326) [2]; [5]): 6.11 days
Days to estrus (sows (PIC Line C-15x326) [2]; [7]): 5.82 days
Farrowing rate (sows (PIC Line C-15x326) [2]; [4]): 93.2%
Number born live (sows (PIC Line C-15x326) [2]; [4]): 12.03
Number total born (sows (PIC Line C-15x326) [2]; [4]): 12.85
Farrowing rate (sows (PIC Line C-15x326) [2]; [5]): 86.5%
Number born live (sows (PIC Line C-15x326) [2]; [5]): 11.17
Number total born (sows (PIC Line C-15x326) [2]; [5]): 11.97
Farrowing rate (sows (PIC Line C-15x326) [2]; [7]): 96.3%
Number born live (sows (PIC Line C-15x326) [2]; [7]): 11.22
Number total born (sows (PIC Line C-15x326) [2]; [7]): 12.26
insulin levels in the plasma of sows (sows (PIC Line C-15x326) [3]; days 10 and 60 of gestation, P<0.07): tended to increase
IGF-I concentration in sow plasma (sows (PIC Line C-15x326) [3]; gestation days 60 and 90): tended to increase
